Assay results from patent publication US5212160A, “3-L-(5-thioxo-L-prolyl)thiazolidine-4-carboxylic acid and derivatives therefrom, processes for the preparation thereof and pharmaceutical compositions containing them” (Poli Industria Chimica S.p.A., priority 1990, dated 1993).
Where a SMILES comes first, the peptide text is derived from it. [ ]: non-standard residue; d: D form. pGlu = O=C1CC[C@@H](C(=O)O)N1; Thz = O=C(O)[C@@H]1CSCN1

What was measured:
[1] = Antitoxic activity: protection of rats against acetaldehyde toxicity; type: in vivo, COBS CD(SD) Rats; conditions: 0.5 mM/kg oral (2 administrations); acetaldehyde 2150 mg/kg per os; mortality up to 72 hours
Protocol: (§1) The antitoxic activity was tested by determining the capability of the compounds of the invention to protect rats against formaldehyde and acetaldehyde toxicities (Sprince et al., Agents and Actions, 9, 407, 1979). COBS CD(SD) Rats (C. River) weighing 180-200 g fasted since the night before were orally administered with the test compounds half an hour before and 5 hours after the oral administration of the toxic agent. Formaldehyde was administered at the dose of 900 mg/kg per os and acetaldehyde at the dose of 2150 mg/kg per os; mortality was controlled up to 72 hours later. […] The activity of the compounds of the invention is similar to that of ascorbic acid and L-cysteine. Since acetaldehyde and formaldehyde are an important portion of the toxic agents contained in cigarette smoke, these novel compounds are very important in the treatment of all the lung pathologies connected to tobacco abuse or to atmosphere pollution. The antiradical activity was tested against doxorubicin mortality in the mouse (R. D. Olson et al., Life Sci., 29, 1393, 1981). Groups of 10 male CD-1 mice (C. River) weighing 18-20 g were treated orally with the tested compounds; one hour later doxorubicin was administered at the dose of 22 mg/kg i.p. (10 ml/kg). […]

[2] = Antitoxic activity: protection of rats against formaldehyde toxicity; type: in vivo, COBS CD(SD) Rats; conditions: 0.5 mM/kg oral (2 administrations); formaldehyde 900 mg/kg per os; mortality up to 72 hours
Protocol: as §1

[3] = tested on: prednisolone-immunodepressed murine peritoneal macrophages; experiment: Superoxide anion production by prednisolone-immunodepressed murine peritoneal macrophages (cytochrome C reduction, PMA stimulated); type: in vivo, mice; conditions: for Reduced cytochrome C nmoles/1 × 10^6 macrophages (mean ± s.e.): 200 mg/kg/die i.p. + prednisolone 0.5 mg/kg/die s.c., 11 days, macrophages stimulated with phorbol myristate acetate; for Activity on superoxide anion production compared with PGT: same weight dosage as PGT
Protocol: Since the production of the superoxide anion (O2.) plays an important role in macrophage antimicrobial activity (N. P. Cumming, M. J. Pabst, J. Exp. Med., 152, 1659, 1980), the test for stimulation of the superoxide anion production in macrophages by medicaments is very important in the evaluation of the immuno-stimulating activity. Therefore, O2. production in isolated peritoneal macrophages from prednisolone-immunodepressed animals treated with the compounds of the invention was evaluated. Mice were treated subcutaneously for 11 days with 0.5 mg/kg/day with prednisolone and with the tested compounds at a dose of 100 mg/kg intraperitoneally twice a day, whereas the day of killing they received the only compounds of the invention. Then macrophages were isolated by means of peritoneal washing and cultured in RPMI-1640 added with 10% bovine foetal serum at a concentration of 1×10^6 cells/ml and at a temperature of +37° C. 1 ml aliquots of the cell suspension were incubated for 15 min. at 37° C. with cytochrome C from horse hearth and stimulated with phorbol myristate acetate (H. Nielsen, Eur. J. Clin. Pharmacol., 30, 99, 1986). After that, a spectrophotometric determination of reduced ferricytochrome C at λ=550 nm was carried out, using an extinction coefficient E (550)=29.5 mM.

[4] = Antiradical activity: protection against doxorubicin mortality in the mouse; type: in vivo, male CD-1 mice; conditions: 0.5 mM/kg per os 4 times in two days; doxorubicin 22 mg/kg i.p.; mortality checked for 14 days
Protocol: as §1

SMILES | Protection against acetaldehyde mortality [1] | Protection against formaldehyde mortality [2] | Reduced cytochrome C nmoles/1 × 10^6 macrophages (mean ± s.e.) [3] | Activity on superoxide anion production compared with PGT [3] | Protection against doxorubicin mortality [4]
CCOC(=O)[C@@H]1CSCN1C(=O)[C@@H]1CCC(=S)N1 [Ia, Ethyl 3-L-(L-5-thioxoprolyl)thiazolidine-4-carboxylate] | 70% | 60% | 9.15 ± 0.68 nmoles/1 × 10^6 macrophages | higher activities than that of PGT | 40%
O=C(O)[C@@H]1CSCN1C(=O)[C@@H]1CCC(=S)N1 [Ib, 3-L-(5-thioxoprolyl)thiazolidine-4-carboxylic acid] | 60% | 70% | 9.17 ± 0.68 nmoles/1 × 10^6 macrophages | higher activities than that of PGT | 50%
O=C1CC[C@@H](C(=O)N2CSC[C@H]2C(=O)O)N1 [PGT, 3-L-pyroglutamyl-L-thiazolidine-4-carboxylic acid, reference compound] ([pGlu]-[Thz]-OH) | – | – | 8.33 ± 0.77 nmoles/1 × 10^6 macrophages | – | –
